Measured values reported in patent US20250367121A1, “DOSAGE FORMS COMPRISING ACTIVE PHARMACEUTICAL INGREDIENTS” (AXSOME THERAPEUTICS, INC., priority 2018, published 2025).

Experiment: clinical
Settings: human, in vivo

Cmax: 20.7 ng/mL
Tmax: 45 min
Compound: CN(C)CCc1c[nH]c2ccc(Cn3cncn3)cc12 [Rizatriptan, rizatriptan]
